Consider three compounds from paper PMC9037111, “Structure-based design, synthesis, and biological evaluation of novel piperine–resveratrol hybrids as antiproliferative agents targeting SIRT-2” (RSC Advances, 2021).

Read-outs that look alike come from different tables or passages of the source.

Holding throughout (assay): sirtuin deacetylase inhibition assay, % inhibition at […] ([…] at […])
Holding throughout (assay type): biochemical

The target in assay [1] is T1, SIRT1 (Homo sapiens, UniProt Q96EB6).
T1 sequence (Q96EB6 2-747): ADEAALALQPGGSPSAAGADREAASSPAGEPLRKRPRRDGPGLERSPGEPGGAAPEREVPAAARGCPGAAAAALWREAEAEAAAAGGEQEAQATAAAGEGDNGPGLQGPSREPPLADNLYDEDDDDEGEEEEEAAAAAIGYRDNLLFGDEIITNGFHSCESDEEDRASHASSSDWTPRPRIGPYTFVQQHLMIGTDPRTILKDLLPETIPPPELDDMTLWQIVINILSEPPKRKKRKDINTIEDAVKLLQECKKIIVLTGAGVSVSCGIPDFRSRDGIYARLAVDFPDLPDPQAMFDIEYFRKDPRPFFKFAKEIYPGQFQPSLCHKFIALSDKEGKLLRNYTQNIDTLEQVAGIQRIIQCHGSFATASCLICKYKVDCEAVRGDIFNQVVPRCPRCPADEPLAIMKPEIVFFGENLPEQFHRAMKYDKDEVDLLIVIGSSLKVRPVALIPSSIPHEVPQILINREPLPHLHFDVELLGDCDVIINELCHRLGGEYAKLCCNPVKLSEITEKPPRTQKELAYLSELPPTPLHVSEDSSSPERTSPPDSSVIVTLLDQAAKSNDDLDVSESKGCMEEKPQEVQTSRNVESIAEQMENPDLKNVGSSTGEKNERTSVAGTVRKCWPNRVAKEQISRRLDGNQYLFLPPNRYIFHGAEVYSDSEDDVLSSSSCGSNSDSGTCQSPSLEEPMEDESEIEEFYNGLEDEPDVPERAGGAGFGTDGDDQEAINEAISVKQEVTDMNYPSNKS

In assay [2] the target is T2, SIRT2 (Homo sapiens, UniProt Q8IXJ6).
T2 sequence (Q8IXJ6 2-389): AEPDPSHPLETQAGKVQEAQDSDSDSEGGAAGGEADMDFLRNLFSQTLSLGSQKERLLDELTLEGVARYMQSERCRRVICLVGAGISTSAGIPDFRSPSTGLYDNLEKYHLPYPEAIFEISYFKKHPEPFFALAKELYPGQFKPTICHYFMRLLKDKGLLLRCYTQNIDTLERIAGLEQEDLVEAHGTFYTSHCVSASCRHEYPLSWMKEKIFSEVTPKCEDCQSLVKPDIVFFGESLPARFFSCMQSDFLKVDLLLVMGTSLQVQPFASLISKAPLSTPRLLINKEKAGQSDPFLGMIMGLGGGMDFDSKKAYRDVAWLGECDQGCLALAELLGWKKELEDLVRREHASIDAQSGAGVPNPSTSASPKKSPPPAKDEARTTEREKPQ

For assay [3], the target named is T2, SIRT2. The source holds these as a separate data set.
For assay [4], the target named is T1, SIRT1. This is another data set of the same source.

As to `CN(C)c1ccc(C=NNC(=O)/C=C/C=C/c2ccc3c(c2)OCO3)cc1` (mixture of isomers) [5d, (2E,4E)-5-(Benzo[d][1,3]dioxol-5-yl)-N′-((E/Z)-4-(dimethylamino)-benzylidene)penta-2,4-dienehydrazide], the inhibition at 50 µM stood at 48 ± 3% on SIRT1 [1] and 70 ± 3% at SIRT2 [2].

Regarding `O=C(/C=C/C=C/c1ccc2c(c1)OCO2)NN=Cc1ccc(O)cc1` [5a, (2E,4E)-5-(Benzo[d][1,3]dioxol-5-yl)-N′-((E,Z)-4-hydroxybenzylidene)penta-2,4-dienehydrazide], on SIRT2 [3], testing at 50 µM gave an inhibition of 72 ± 3%.

`O=C(/C=C/C=C/c1ccc2c(c1)OCO2)N/N=C/c1ccc(O)cc1O` [5b, (2E,4E)-5-(Benzo[d][1,3]dioxol-5-yl)-N′-((E)-2,4-dihydroxybenzylidene)penta-2,4-dienehydrazide] registered an inhibition at 50 µM against SIRT1 [4] of 45 ± 3%.

One may read the inhibition as how much of the control response was suppressed. High values mean a strong effect, low ones a weak effect.
